Laboratory results taken from patent publication US20230000813A1, “COMPOUND FOR THE TREATMENT OF BOVINE OR SWINE RESPIRATORY DISEASE” (Intervet Inc., priority 2016, published 2023).
Converted amounts (≈) assume the structure as drawn. “And” between values parts separate entries of the source, which are not always exact repeats. Identical values can stand only once.

Tests used:
[1] = test system: Mannheimia haemolytica MH 10720 (154, BRD field isolate); assay: MIC, broth-microdilution (CLSI VET01-A4); format: cell-based; conditions: strain MH 10720
In short: (§1)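 Visual no-turbidity endpoint over twofold compound dilutions in microdilution trays, interpreted according to CLSI VET01-S3.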

[2] = test system: Mannheimia haemolytica MH 12587 (1071, BRD field isolate, macrolide-resistance: erm+, E+); assay: MIC, broth-microdilution (CLSI VET01-A4); format: cell-based; conditions: strain MH 12587, macrolide-resistant
In short: as §1

[3] = test system: Mannheimia haemolytica MH 6357 (M7/2, reference strain, cattle infection strain); assay: MIC, broth-microdilution (CLSI VET01-A4); format: cell-based; conditions: strain MH 6357
In short: as §1

[4] = test system: Mannheimia haemolytica MH 6374 (ATCC 33396, reference strain); assay: MIC, broth-microdilution (CLSI VET01-A4); format: cell-based; conditions: strain MH 6374
In short: as §1

[5] = test system: Pasteurella multocida PM 10775 (080130003051, BRD field isolate); assay: MIC, broth-microdilution (CLSI VET01-A4); format: cell-based; conditions: strain PM 10775
In short: as §1

[6] = test system: Pasteurella multocida PM 12080 (IV102277-0093, BRD field isolate); assay: MIC, broth-microdilution (CLSI VET01-A4); format: cell-based; conditions: strain PM 12080
In short: as §1

[7] = test system: Pasteurella multocida PM 6267 (P 2225 (L386), reference strain, mouse infection strain); assay: MIC, broth-microdilution (CLSI VET01-A4); format: cell-based; conditions: strain PM 6267
In short: as §1

[8] = test system: Pasteurella multocida PM 6391 (ATCC 43137, reference strain); assay: MIC, broth-microdilution (CLSI VET01-A4); format: cell-based; conditions: strain PM 6391
In short: as §1

[9] = test system: Acinetobacter baumanii AB 15919 (IV369-2012, dermatitis field isolate); assay: MIC, broth-microdilution (CLSI VET01-A4); format: cell-based; conditions: strain AB 15919
Protocol: (§2) The Minimum inhibitory concentrations (MIC) of compounds according to the invention were determined by the broth-microdilution method according to CLSI document VET01-A4.
(§3) Microdilution trays containing a doubling dilution series of the test compound were used for the tests.
(§4) The MIC results were interpreted according to the CLSI documents VET01-S3. The lowest concentration of compound at which no visible growth (i.e. no turbidity) detected by the unaided eye was recorded as the MIC.

[10] = test system: Acinetobacter baumanii AB 16496 (ATCC 19606, reference strain); assay: MIC, broth-microdilution (CLSI VET01-A4); format: cell-based; conditions: strain AB 16496
Protocol: as §2, §3, §4

[11] = test system: Mannheimia haemolytica MH 12180 (KLI-02944, BRD field isolate); assay: MIC, broth-microdilution (CLSI VET01-A4); format: cell-based; conditions: strain MH 12180
Protocol: as §2, §3, §4

[12] = test system: Pasteurella multocida PM 14426 (0006-439, BRD field isolate, macrolide-resistant); assay: MIC, broth-microdilution (CLSI VET01-A4); format: cell-based; conditions: strain PM 14426, macrolide-resistant
Protocol: as §2, §3, §4

[13] = test system: Staphylococcus aureus SA 5816 (2139, mastitis field isolate); assay: MIC, broth-microdilution (CLSI VET01-A4); format: cell-based; conditions: strain SA 5816
Protocol: as §2, §3, §4

[14] = test system: Staphylococcus aureus SA 6114 (ATCC 29213, reference strain); assay: MIC, broth-microdilution (CLSI VET01-A4); format: cell-based; conditions: strain SA 6114
Protocol: as §2, §3, §4

[15] = test system: 20 isolates of Actinobacillus (A.) pleuropneumoniae; assay: MIC50/MIC90, broth-microdilution, European respiratory tract isolates; format: cell-based
Protocol: (§5) The in vitro activity of compounds against 20 isolates of Actinobacillus (A.) pleuropneumoniae, 20 of Bordetella (B.) bronchiseptica, 20 of Histophilus (H.) somni, 40 of Mannheimia (M.) haemolytica and 40 of Pasteurella (P.) multocida collected in different European countries were determined. All bacteria were isolated from the respiratory tract of swine and cattle suffering from respiratory disease. All isolates were epidemiologically unrelated as specified by the different suppliers.
(§6) The minimum inhibitory concentrations (MIC) of compounds according to the invention were determined by the broth-microdilution method according to CLSI document VET01-A4.
(§7) Microdilution trays containing a doubling dilution series of the test compounds were used for the tests.
as §4

[16] = test system: 20 isolates of Bordetella (B.) bronchiseptica; assay: as above; format: cell-based
Protocol: as §5, §6, §7, §4

[17] = test system: 20 isolates of Histophilus (H.) somni; assay: as above; format: cell-based
Protocol: as §5, §6, §7, §4

[18] = test system: 40 isolates of Mannheimia (M.) haemolytica; assay: as above; format: cell-based
Protocol: as §5, §6, §7, §4

[19] = test system: 40 isolates of Pasteurella (P.) multocida; assay: as above; format: cell-based
Protocol: as §5, §6, §7, §4

[20] = test system: M. haemolytica M7/2; assay: Mannheimia haemolytica cattle lung infection model, efficacy (Example 9); format: in vivo, cattle calves; conditions: for Food consumption, cumulated for all animals in the group: 3 calves, SC 10 mg/kg BW
Protocol: (§8) Unless otherwise described the study was conducted as described in Example 8.
Calves were infected via intratracheal instillation of appr. 300 mL of M. haemolytica PBS suspension containing approximately 4×10^9 CFU M. haemolytica in late log phase on Day 0.
The following clinical findings were recorded: The general behavior scores of the animals before (DO am) and after infection with M. haemolytica in the different treated and control groups are indicated in FIG. 7-1: 0 =normal; 1=slightly depressive, 2=moderately depressive, 3=highly depressive, […] recumbency.
The following pathomorphological findings after section on Day 2 were recorded: After measuring the body weight and the lung weight the Lung body mass ratio was calculated as shown in FIG. 7-2. A healthy animal has a lung body mass ration around 1.7 or lower. The area percentage of lung consolidations compared to the total lung tissue and the lung score determined that is a combined score of such percentage of lung consoldiations and the grade. For the “grade” the degree of lung consolidation score was graded from 0 to 3 for each of eight lung lobes: 0 no visible changes, 1 low graded colour changes or induration, 2 medium graded induration, 3 high graded induration, hepatisation, necrosis.
The geometrical means (CFU/g tissue) of bacteriological re-isolations of Mannheimia haemolytica from lung tissue are illustrated in FIG. 7-4.

[21] = Plasma and tissue concentrations and pharmacokinetics in infected calves (Example 9); format: in vivo, cattle calves
Protocol: as §8

[22] = calves infected with M. haemolytica, SC, single, 10 mg/kg BW, x = number of animals, n = total in group
[23] = SC single 10 mg/kg (C.105, C.189 in 10% Poloxamer 188; C.326 in 30% Captisol), individual animals and mean
[24] = SC single 10 mg/kg (C.105, C.189 in 10% Poloxamer 188; C.326 in 30% Captisol), individual animals and mean, 10 mg/kg
[25] = plasma, SC 10 mg/kg, mean, Phoenix WinNonlin

COCCNCc1ccc(C#Cc2ccc(C(=O)N[C@H](C(=O)NO)[C@@H](C)O)cc2)s1 [C. 189] gave an MIC [1] of 0.125 µg/mL (≈ 0.29 µM), an MIC [2] of 1 µg/mL (≈ 2.32 µM) and an MIC [3] of 0.5 µg/mL (≈ 1.16 µM). For the same compound, the MIC [4] was 0.25 µg/mL (≈ 0.579 µM), the MIC [5] was ≤0.016 µg/mL and the MIC [6] was 0.063 µg/mL (≈ 0.146 µM). For the same compound, the MIC [7] was 0.5 µg/mL (≈ 1.16 µM), the MIC [8] was 0.25 µg/mL (≈ 0.579 µM) and the MIC [9] was >16 µg/mL. For the same compound, the MIC [10] was >16 µg/mL, the MIC [11] was 0.25 µg/mL (≈ 0.579 µM) and the MIC [12] was 0.032 µg/mL (≈ 0.0742 µM). For the same compound, the MIC [13] was >16 µg/mL, the MIC [14] was >16 µg/mL and the MIC50 [15] was 0.25 µg/mL (≈ 0.579 µM). For the same compound, the MIC90 [15] was 0.25 µg/mL (≈ 0.579 µM), the MIC50 [16] was >16 µg/mL and the MIC90 [16] was >16 µg/mL. It also gave an MIC50 [17] of 0.032 µg/mL (≈ 0.0742 µM), an MIC90 [17] of 0.063 µg/mL (≈ 0.146 µM) and an MIC50 [18] of 0.25 µg/mL (≈ 0.579 µM). For the same compound, the MIC90 [18] was 0.5 µg/mL (≈ 1.16 µM), the MIC50 [19] was 0.032 µg/mL (≈ 0.0742 µM) and the MIC90 [19] was 0.063 µg/mL (≈ 0.146 µM). For the same compound, the “Food consumption, cumulated for all animals in the group” value (from here on “Food consumption, cumulated”) ([20]; D 0 am, after infection and treatment) was 4800 g, the “Food consumption, cumulated” value ([20]; D 0 pm) was 4800 g and the “Food consumption, cumulated” value ([20]; D +1 am) was 4800 g. For the same compound, the “Food consumption, cumulated” value ([20]; D +1 pm) was 4800 g, the “Food consumption, cumulated” value ([20]; D −1 (before infection)) was 4800 g and the “Bacteriological Cure (x of n)” value [20, 22] was 1/3. The “Survival (x of n)” value [20, 22] was 3/3, the “efficacy against an artificial lung infection with M. haemolytica M7/2 in the calf” value ([20]; tested dosage of 10 mg/kg, conclusion in words) was “effective” and the “Concentration, Plasma 48 h” value [21, 23] was “BLQ”. For the same compound, the “Concentration, Tissue (48 h) ELF” value [21, 23] was “BLQ”, the “Concentration, Tissue (48 h) Liver” value [21, 23] was 22.5 ng/mL and the “Concentration, Tissue (48 h) Lung” value [21, 23] was “BLQ”. The “Concentration, Tissue (48 h) Muscle” value [21, 23] was “BLQ”, the “Concentration, Plasma 0.5 h” value [21, 24] was 916 ng/mL and 892 ng/mL and 1350 ng/mL and the “Concentration, Plasma 2 h” value [21, 24] was 465 ng/mL and 663 ng/mL and 788 ng/mL. For the same compound, the “Concentration, Plasma 4 h” value [21, 24] was 433 ng/mL and 300 ng/mL and 430 ng/mL, the “Concentration, Plasma 6 h” value [21, 24] was 339 ng/mL and 293 ng/mL and 289 ng/mL and the “Concentration, Plasma 24 h” value [21, 24] was 31.3 ng/mL and 20.3 ng/mL and 21.8 ng/mL. For the same compound, the “Concentration, Tissue (48 h) Kidney” value [21, 24] was “BLQ (2×) and 25.1 ng/mL”, the “Concentration, Tissue (48 h) Liver” value [21, 24] was “BLQ” and the AUClast [21, 25] was 6236 ng·h/mL. For the same compound, the CI_F_obs [21, 25] was 26.08 mL/min/kg, the Cmax [21, 25] was 1053 ng/mL and the “HL_Lambda_z (Half life time)” value [21, 25] was 4.98 h. The “MRTlast (Mean retention time till last measured value)” value [21, 25] was 4.75 h, the Tmax [21, 25] was 0.5 h and the Vz_F_obs [21, 25] was 11.2 L/kg. The “Concentration, Plasma 0 h” value ([21]; predose, SC single 10 mg/kg (C.105, C.189 in 10% Poloxamer 188; C.326 in 30% Captisol), individual animals and mean) was “BLQ”.
